Experimental data: doi:10.1101/2022.01.13.476167v2 (biorxiv, 2022)

Test system: aPGA (Achromobacter spp. penicillin G acylase)
Conditions: 0.05 M phosphate buffer, pH 8.0, 35 °C

Row | SMILES | Km [µM]
1 | CCCCCC(=O)N[C@H]1CCOC1=O [C06-HSL] | 620 ± 100
2 | CCCCCCCC(=O)N[C@H]1CCOC1=O [C08-HSL] | 870 ± 10
